We go through 15 molecules from paper PMC11396935, “Exploration of Compounds with 2-Phenylbenzo[d]oxazole Scaffold as Potential Skin-Lightening Agents through Inhibition of Melanin Biosynthesis and Tyrosinase Activity” (Molecules, 2024).

The target of one experiment is T1, mushroom tyrosinase (Agaricus bisporus, UniProt C7FF04).
T1 construct: purchased Sigma-Aldrich (St. Louis, MO, USA)
Description: Mushroom tyrosinase activity inhibition assay (L-tyrosine or L-dopa as substrate). The class given is biochemical. The note with it: mushroom tyrosinase, 37 °C, mean ± SEM of triplicates. The method, then: 3.3. Tyrosinase Activity Assay Using Mushroom Tyrosinase
The tyrosinase inhibitory activity of the 2-phenylbenzoxazoles was evaluated using a mushroom tyrosinase activity assay, following a previously described method. An aqueous substrate mixture, consisting of phosphate buffer (pH 6.5; 17.2 mM) and L-tyrosine or L-dopa (345 μM), was prepared. A 96-well plate containing the test sample in dimethyl sulfoxide (DMSO) solution (10 μL), aqueous mushroom tyrosinase solution (20 μL; 200 units), and aqueous substrate mixture (170 μL) in each well was incubated at 37 °C for 15 min for L-dopa and 30 min for L-tyrosine, respectively.

A short description of experiment [1]: ABTS radical cation scavenging assay. The following applies: 100 μM. The procedure:
For ABTS^+• scavenging experiments, ABTS^+• was generated by oxidizing ABTS using potassium persulfate. All test samples (Trolox [TR; positive material] and 1–15) were used at a final concentration of 100 μM. […] Both compounds share a common catechol structure. […] Similar results were obtained in the DPPH radical scavenging experiment. […] Compounds 4, 9, and 14, bearing a 4-hydroxy-3-methoxyphenyl, scavenged ABTS^+• moderately (23–51%).
3.15. 2,2′-Azino-bis(3-ethylbenzothiazoline-6-sulfonic Acid) (ABTS) Radical Cation Scavenging Assay
The effect of the 2-phenylbenzoxazole compounds 1–15 on radical scavenging was assessed using an ABTS assay, as previously reported. An ABTS aqueous solution (7 mM) was mixed with a K2S2O8 aqueous solution (2.45 mM) in equal volumes (each 20 mL) and incubated in the dark for 20 h at 25 °C to generate ABTS^+•. The ABTS^+• solution was then diluted with pure EtOH to adjust the absorbance of the solution to 0.7 ± 0.02 at 730 nm. The test samples (1–15 and Trolox [positive control]) were dissolved in a co-solvent of EtOH and DMSO (9:1, v/v) to make a 1 mM solution. The diluted ABTS^+• solution was mixed with the test sample solution at a volume ratio of 9:1 (90 μL:10 μL) and the mixture was stored for 2 min at 20 °C in the dark. The optical density was measured at 730 nm using an ELISA reader at 1 min intervals for 10 min. All test samples were used at a final concentration of 100 µM.
ABTS^+• radical scavenging activity (%) = [(ODcon − ODsam)/ODcon] × 100, where ODsam and ODcon represent the absorbances of the test sample and the control, respectively.

Experiment [2] can be described thus: DPPH radical scavenging assay. The note with it: 500 μM, 30 min in the dark. The method, then: The DPPH radical scavenging activity was assessed by mixing DPPH solution with compounds 1–15 and incubating them in the dark for 30 min. All test samples were evaluated at 500 μM.
3.14. 2,2′-Diphenyl-1-picrylhydrazyl (DPPH) Radical Scavenging Assay
As previously reported, the ability of compounds 1–15 to remove DPPH radicals was evaluated. A 0.2 mM methanolic DPPH solution was mixed with a 5 mM L-ascorbic acid aqueous solution or 5 mM DMSO solution of 1–15 at a ratio of […] (v/v, 180 μL:20 μL) in each well of a 96-well microplate. After incubating the microplate in the dark for 30 min, the optical density of each well was measured at 517 nm using an ELISA reader. DPPH scavenging activity (%) = (OD[control] − OD[sample]) × 100/OD[control].
A general note: The DPPH test is a chemical assay of radical scavenging.

Experiment [3] is described as follows: ROS scavenging assay (SIN-1/DCFH). The note with it: 40 μM; SIN-1 10 μM; 30 min. The method, then: For ROS scavenging experiments, test samples (1–15 and Trolox [positive control]; 40 μM) containing 3-morpholinosydnonimine (SIN-1; 10 μM) were mixed with a 2′,7′-dichlorodihydrofluorescein (DCFH) solution. After 30 min, the ROS scavenging activity of the test samples was assessed.
3.16. Reactive Oxygen Species (ROS) Scavenging Assay
The ability of compounds 1–15 to remove ROS was assayed as previously reported. […] A 3-morpholinosydnonimine (SIN-1) solution (10 μL, 250 μM) and phosphate buffer (180 μL) were mixed with a test sample (1–15; 10 μL, 1 mM) in DMSO solution or Trolox (10 μL, 1 mM; positive control) in each well of a 96-well black plate and left in the dark 25 °C for 5 min. The SIN-1-test sample mixture was then combined with the generated DCFH solution (50 μL). Fluorescence was measured in 5 min intervals for 30 min at 530 nm using a microplate reader (Berthold Advances GmbH & Co., Bad Wildbad, Germany) with excitation at 485 nm.

In experiment [4] the test system is zebrafish larvae. Description: Melanin content in zebrafish larvae. The class given is in vivo, zebrafish (Danio rerio). The following applies: compound 8 0.025 mM; kojic acid 20 mM; treated 28 hpf, read 74 hpf. The method, then:
(§1) . Zebrafish embryos obtained by natural mating were dechorionated at 24 hpf and treated with compound 8 (0.025 mM) or kojic acid (20 mM) at 28 hpf. After 46 h, the melanin content and tyrosinase activity were determined.
(§2) 3.13. Measurement of Melanin Content and Tyrosinase Activity in Zebrafish Larvae
(§3) The effects of the 2-phenylbenzo[d]oxazole compound 8 on the melanin content and tyrosinase activity in the zebrafish larvae were assessed using a previously defined procedure with minor modifications. To quantify the melanin content in the zebrafish larvae, zebrafish embryos were obtained through natural mating and operated in a similar manner to the in vivo depigmentation experiment (25 zebrafish embryos per well in a 24-well plate; dechorionation at 24 hpf; test sample treatment (8 [0.025 mM] and kojic acid [20 mM; positive control]) at 28 hpf). Melanin quantification and tyrosinase activity were quantified at 74 hpf. For melanin quantification, the zebrafish larvae were lysed in RIPA buffer (Biosesang, Gyeonggi-do, Korea) and homogenized using a sonicator. […] The absorbance was measured at 405 nm using a microplate reader. For the tyrosinase activity measurement, the supernatants were transferred to new Eppendorf tubes and the protein was quantified using a Pierce BCA protein assay kit, with the absorbance being measured at 570 nm using a microplate reader. […]

In experiment [5] the test system is tyrosinase activity in zebrafish larvae. Put plainly: Tyrosinase activity in zebrafish larvae. The class given is in vivo, zebrafish (Danio rerio). The note with it: compound 8 0.025 mM; kojic acid 20 mM; treated 28 hpf, read 74 hpf. The method, then: as §1, §2, §3
The test system of experiment [6] is zebrafish larvae. Description: In vivo depigmentation experiment using zebrafish embryos. The note with it: kojic acid 20 mM; compound 8 0.025 mM; compound 13 0.025 and 0.05 mM; 76 hpf.
Description: Zebrafish embryos were used in this study. […] The zebrafish embryos were obtained through natural mating in our laboratory. The chorion of the zebrafish embryos was removed 24 h post-fertilization (hpf).
In Vivo Depigmentation Experiment Using Zebrafish Embryos
A depigmentation experiment was performed using zebrafish embryos, as previously described [38, 49, 50]. Wild-type zebrafish (Danio rerio) were maintained in a fish tank at 28 °C and fed with dried brine shrimp (Artemia salina, San Francisco Bay Brand, San Francisco, CA, USA) three times daily. The zebrafish embryos were obtained through natural mating in mating cages. The obtained zebrafish embryos were transferred to a 90 mm culture dish containing 200 μL of E3-methylene blue (MB) solution, consisting of 0.001% MB, 0.17 mM KCl, 0.33 mM CaCl2, 0.33 mM MgSO4, and 5 mM NaCl, and incubated in an incubator set at 28 °C. At 24 h post-fertilization (hpf), the zebrafish embryos were dechorionated using pronase (Sigma-Aldrich, St. Louis, MO, USA). […] The 48-well plates were incubated in an incubator set at 28 °C for 48 h. At 76 hpf, the zebrafish larvae were mounted on a 1% methylcellulose block after anesthesia with tricaine methanesulfonate (Thermo Fisher Scientific, Waltham, MA, USA), and photographs of the zebrafish larvae were obtained using a SMZ745T stereoscopic microscope (Nikon, Tokyo, Japan). The pigmented areas of the zebrafish larvae were determined using the CS analyzer 3.0 image analysis software (ATTO, Tokyo, Japan).
Experiment [7] concerns B16F10 tyrosinase in situ. The note with it: compounds 1, 2, 5 μM; kojic acid 5 μM; α-MSH + IBMX 72 h; excess L-dopa.
Description: To evaluate the effect of the compounds on in situ tyrosinase activity, an experiment using B16F10 cells was performed as previously described [34, 35]. […] Excess L-dopa was added to increase their melanin production prior to the acquisition of cell images.
In Situ Tyrosinase Activity Assay Using B16F10 Cells and L-dopa
In situ tyrosinase activity was measured in B16F10 cells using L-dopa, as reported previously [34]. […] The cells were processed as follows: (1) fixing with 4% paraformaldehyde for 40 min, (2) washing with PBS, and (3) permeabilizing with 0.1% Triton X-100 for 2 min. After washing with PBS, the cells were stained with L-dopa (2 mM; 500 μL) at 37 °C for 2 h. Stained images were collected using a camera connected to a microscope (Motic, Hong Kong).
Where [8] appears, read: substrate L-dopa, 15 min, read-out: IC50 Values, L-Dopa.
The mark [9] stands for this setting: substrate L-tyrosine, 30 min, read-out: IC50 Values, L-Tyrosine.

Where two headings read alike, the source gives them in different places.

T1 sequence (C7FF04 1-392 limits assumed): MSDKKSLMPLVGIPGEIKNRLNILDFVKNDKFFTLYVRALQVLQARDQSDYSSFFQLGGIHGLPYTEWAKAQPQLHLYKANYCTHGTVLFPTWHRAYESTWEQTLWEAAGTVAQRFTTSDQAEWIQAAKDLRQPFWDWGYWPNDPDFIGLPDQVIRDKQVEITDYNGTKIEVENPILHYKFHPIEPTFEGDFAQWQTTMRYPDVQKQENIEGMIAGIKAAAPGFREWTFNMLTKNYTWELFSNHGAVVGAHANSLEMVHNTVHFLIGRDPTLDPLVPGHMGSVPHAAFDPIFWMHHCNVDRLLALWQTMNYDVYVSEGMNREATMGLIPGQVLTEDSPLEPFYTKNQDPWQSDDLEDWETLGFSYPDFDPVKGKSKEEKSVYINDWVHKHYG

By IC50 is commonly meant the concentration that gives 50% inhibition. With `Cc1ccc2nc(-c3ccc(O)cc3)oc2c1` [Compound 1, 4-(6-Methylbenzo[d]oxazol-2-yl)phenol], the IC50 at mushroom tyrosinase (setting [8]) is greater than 200 µM; at mushroom tyrosinase (setting [9]) it was 153 ± 14.3 µM.
As for `COc1ccc(-c2nc3ccc(C)cc3o2)c(OC)c1` [Compound 2, 2-(2,4-Dimethoxyphenyl)-6-methylbenzo[d]oxazole], the IC50 on mushroom tyrosinase (setting [8]) and on mushroom tyrosinase (setting [9]) was greater than 200 µM throughout. Moreover, in experiment [1], the “ABTS+• scavenging activity (% inhibition)” value was “less than 5%”.
Consider `COc1ccc(-c2nc3ccc(C)cc3o2)cc1O` [Compound 4, 2-Methoxy-5-(6-methylbenzo[d]oxazol-2-yl)phenol], for which the IC50 on mushroom tyrosinase (setting [8]) and at mushroom tyrosinase (setting [9]) was greater than 200 µM each time.
Consider `Cc1ccc2nc(-c3ccc(O)c(O)c3)oc2c1` [Compound 5, 4-(6-Methylbenzo[d]oxazol-2-yl)benzene-1,2-diol], for which the IC50 amounted to 187 ± 30.3 µM on mushroom tyrosinase (setting [8]) and 144 ± 3.1 µM on mushroom tyrosinase (setting [9]). The “DPPH radical scavenging activity (in words)” value in experiment [2] is “weak DPPH radical scavenging effect”. For the same molecule, the “ABTS+• scavenging activity (% inhibition)” value in experiment [1] was 13%. In addition, the ROS scavenging activity result in experiment [3] is listed as “strong ROS scavenging efficacy”.
Take `Oc1ccc(-c2nc3ccc(Cl)cc3o2)cc1` [Compound 6, 4-(6-Chlorobenzo[d]oxazol-2-yl)phenol]: the IC50 at mushroom tyrosinase (setting [8]) was greater than 200 µM; on mushroom tyrosinase (setting [9]) it was 57.5 ± 8.78 µM.
Regarding `COc1ccc(-c2nc3ccc(Cl)cc3o2)c(OC)c1` [Compound 7, 6-Chloro-2-(2,4-dimethoxyphenyl)benzo[d]oxazole], the IC50 at mushroom tyrosinase (setting [8]) and on mushroom tyrosinase (setting [9]) was greater than 200 µM in each case. Besides, in experiment [1], the “ABTS+• scavenging activity (% inhibition)” value is recorded as “less than 5%”.
`COc1ccc(-c2nc3ccc(Cl)cc3o2)cc1O` [Compound 9, 5-(6-Chlorobenzo[d]oxazol-2-yl)-2-methoxyphenol]: the IC50 on mushroom tyrosinase (setting [8]) and on mushroom tyrosinase (setting [9]) was greater than 200 µM each time.
With `Oc1ccc(-c2nc3ccc(Cl)cc3o2)cc1O` [Compound 10, 4-(6-Chlorobenzo[d]oxazol-2-yl)benzene-1,2-diol], the IC50 at mushroom tyrosinase (setting [8]) is greater than 200 µM; on mushroom tyrosinase (setting [9]), 59 ± 4.74 µM. Moreover, the “DPPH radical scavenging activity” value in experiment [2] was determined as 86%. For the same molecule, the “ABTS+• scavenging activity (% inhibition)” value in experiment [1] is on record as 81%. Moreover, the ROS scavenging activity entry in experiment [3] is “strong to moderate ROS-scavenging activity”.
Regarding `Cc1ccc2oc(-c3ccc(O)cc3)nc2c1` [Compound 11, 4-(5-Methylbenzo[d]oxazol-2-yl)phenol], the IC50 at mushroom tyrosinase (setting [8]) was greater than 200 µM; on mushroom tyrosinase (setting [9]), 76.8 ± 3.84 µM.
In the case of `COc1ccc(-c2nc3cc(C)ccc3o2)c(OC)c1` [Compound 12, 2-(2,4-Dimethoxyphenyl)-5-methylbenzo[d]oxazole], the IC50 on mushroom tyrosinase (setting [8]) and on mushroom tyrosinase (setting [9]) was greater than 200 µM in each case. In addition, the “ABTS+• scavenging activity (% inhibition)” value in experiment [1] was “less than 5%”.
Consider `COc1ccc(-c2nc3cc(C)ccc3o2)cc1O` [Compound 14, 2-Methoxy-5-(5-methylbenzo[d]oxazol-2-yl)phenol], for which the IC50 on mushroom tyrosinase (setting [8]) is greater than 200 µM; at mushroom tyrosinase (setting [9]), 146 ± 16.4 µM.
Take `Cc1ccc2oc(-c3ccc(O)c(O)c3)nc2c1` [Compound 15, 4-(5-Methylbenzo[d]oxazol-2-yl)benzene-1,2-diol]: the IC50 is greater than 200 µM on mushroom tyrosinase (setting [8]) and 80.3 ± 5.24 µM at mushroom tyrosinase (setting [9]). Further, the “DPPH radical scavenging activity” value in experiment [2] was found to be 86%. The “ABTS+• scavenging activity (% inhibition)” value in experiment [1] amounted to 83%. In addition, the ROS scavenging activity result in experiment [3] is “strong ROS scavenging efficacy comparable to that of Trolox”.
In the case of `O=C1O[C@H]([C@@H](O)CO)C(O)=C1O` [L-ascorbic acid, reference compound], the “DPPH radical scavenging activity” value in experiment [2] came out at 96%.
On to `Cc1c(C)c2c(c(C)c1O)CCC(C)(C(=O)O)O2` (centres unmarked) [Trolox, reference compound], for which the “ABTS+• scavenging activity (% inhibition)” value in experiment [1] was 99%. The ROS scavenging activity result in experiment [3] is on record as “most potent ROS scavenging activity”.
Consider `O=c1cc(CO)occ1O` [kojic acid, Kojic acid, reference compound], for which, in the experiment on zebrafish larvae [4], the “melanin content of zebrafish larvae, vs untreated control (100%)” value worked out at 53%. The “% tyrosinase activity in zebrafish larvae, vs untreated control (100%)” value in experiment [5] was 57%. In the experiment on zebrafish larvae [6], the “depigmentation effect on zebrafish larvae (photographs)” value is reported as “reduced pigmentation in all regions except the eyes” and the “pigmentation area of zebrafish larvae (CS analyzer)” value was “decreased the pigmentation area compared to the control”. Moreover, the “melanin formation, in situ tyrosinase activity in B16F10 cells” value in experiment [7] is listed as “markedly decreased melanin formation”.
